Source: US12358915B2, “METTL3 inhibitory compounds” (STORM THERAPEUTICS LTD., priority 2019, dated 2025)

Molecular target: T1, METTL3/14 (Homo sapiens, UniProt Q86U44)
T1 construct: The enzyme used was full-length his-tagged METTL3; His; made in house
Assay: METTL3/14 methyltransferase assay (METTL3_14 RFMS, RapidFire mass spectrometry);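 note: recombinant His-tagged METTL3 with FLAG-tagged METTL14 from baculovirus, SAH product quantified by mass spectrometry against isotope-labelled internal standards, 60 min at room temperature, scaled between no-RNA and DMSO-only wells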
Assay type: biochemical
Conditions: 5 nM METTL3/14, 0.2 μM RNA substrate, 0.5 μM SAM; lower limit of the assay IC50=5 nM; Compounds 63-265; read-out: METTL3_14 RFMS IC50

T1 sequence (Q86U44 whole entry): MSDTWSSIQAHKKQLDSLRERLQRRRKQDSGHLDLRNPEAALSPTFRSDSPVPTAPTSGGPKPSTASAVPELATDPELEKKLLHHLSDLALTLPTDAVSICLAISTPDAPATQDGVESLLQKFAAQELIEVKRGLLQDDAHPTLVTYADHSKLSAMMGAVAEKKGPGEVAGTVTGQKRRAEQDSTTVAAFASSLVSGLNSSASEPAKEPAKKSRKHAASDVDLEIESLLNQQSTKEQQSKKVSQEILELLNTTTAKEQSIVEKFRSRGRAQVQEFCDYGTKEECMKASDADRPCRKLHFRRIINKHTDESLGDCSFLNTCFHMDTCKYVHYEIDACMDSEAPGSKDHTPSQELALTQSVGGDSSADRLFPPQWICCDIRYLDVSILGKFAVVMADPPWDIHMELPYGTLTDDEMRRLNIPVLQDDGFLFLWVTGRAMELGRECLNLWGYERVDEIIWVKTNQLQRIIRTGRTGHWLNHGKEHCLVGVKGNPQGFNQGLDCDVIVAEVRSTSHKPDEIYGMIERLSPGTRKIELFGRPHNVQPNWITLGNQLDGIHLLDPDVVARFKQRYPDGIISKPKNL
T1 sequence (Q9HCE5 whole entry partner): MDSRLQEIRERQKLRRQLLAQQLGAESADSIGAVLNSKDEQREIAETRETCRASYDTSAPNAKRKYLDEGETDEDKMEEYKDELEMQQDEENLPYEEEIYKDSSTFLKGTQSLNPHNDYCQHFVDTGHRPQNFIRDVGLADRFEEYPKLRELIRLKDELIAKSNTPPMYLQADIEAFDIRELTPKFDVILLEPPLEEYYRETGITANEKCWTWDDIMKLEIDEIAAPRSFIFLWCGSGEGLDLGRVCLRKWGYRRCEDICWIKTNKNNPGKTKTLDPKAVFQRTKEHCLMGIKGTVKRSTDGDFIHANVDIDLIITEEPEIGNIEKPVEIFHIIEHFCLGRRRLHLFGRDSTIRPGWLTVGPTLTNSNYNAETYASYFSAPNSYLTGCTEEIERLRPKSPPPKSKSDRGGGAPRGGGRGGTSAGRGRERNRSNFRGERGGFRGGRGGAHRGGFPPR

| Structure (SMILES) | IC50 [nM] |
| --- | --- |
| CS(=O)(=O)CCNCc1ccc2nc(CNC(=O)c3cc(=O)n4ccccc4n3)cn2c1 [Compound 96, N-[(6-{[(2-methane-sulfonylethyl)amino]methyl}imidazo[1,2-a]pyridin-2-yl)methyl]-4-oxo-4H-pyrido [1,2-a]pyrimidine-2-carboxamide] | 947 |
| O=C(NCc1cn2cc(CN3CCC(c4ccccc4)C3)ccc2n1)c1cc(=O)n2ccccc2n1 (stereo not drawn) [Compound 97, 4-oxo-N-({6-[(3-phenylpyrrolidin-1-yl)methyl]imidazo [1,2-a]pyridin-2-yl}methyl)-4H-pyrido[1,2-a] pyrimidine-2-carboxamide] | 1020 |
| O=C(NCc1cn2cc(CNCc3cncs3)ccc2n1)c1cc(=O)n2ccccc2n1 [Compound 99, 4-oxo-N-{[6-({[(1,3-thiazol-5-yl)methyl]amino}methyl)imidazo[1,2-a]pyridin-2-yl]methyl}-4H-pyrido[1,2-a] pyrimidine-2-carboxamide] | 318 |
| CC(C)(C)OC(=O)N1CCCC(CNCc2ccc3nc(CNC(=O)c4cc(=O)n5ccccc5n4)cn3c2)C1 (stereo not drawn) [Compound 100, tert-butyl 3-{[({2-[({4-oxo-4H-pyrido[1,2-a]pyrimidin-2-yl}formamido)methyl]imidazo [1,2-a]pyridin-6-yl}methyl)amino]methyl}piperidine-1-carboxylate] | 1380 |
| CC(C)(C)OC(=O)N1CCCCC1CNCc1ccc2nc(CNC(=O)c3cc(=O)n4ccccc4n3)cn2c1 (stereo not drawn) [Compound 102, tert-butyl 2-{[({2-[({4-oxo-4H-pyrido[1,2-a]pyrimidin-2-yl} formamido)methyl]imidazo[1,2-a]pyridin-6-yl}methyl)amino]methyl}piperidine-1-carboxylate] | 429 |
| O=C(NCc1cn2cc(CNCc3ccn(CC(F)(F)F)n3)ccc2n1)c1cc(=O)n2ccccc2n1 [Compound 105, 4-oxo-N-({6-[({[1-(2,2,2-trifluoroethyl)-1H-pyrazol-3-yl]methyl}amino)methyl]imidazo[1,2-a]pyridin-2-yl}methyl)-4H-pyrido[1,2-a] pyrimidine-2-carboxamide] | 1200 |

These reach a lower IC50. Values come first.

| IC50 [nM] | Structure (SMILES) |
| --- | --- |
| 74.4 | O=C(NCc1cn2cc(CNCC3CCCO3)ccc2n1)c1cc(=O)n2ccccc2n1 (stereo not drawn) [Compound 95, 4-oxo-N-{[6-({[(oxolan-2-yl)methyl]amino}methyl)imidazo [1,2-a]pyridin-2-yl]methyl}-4H-pyrido[1,2-a]pyrimidine-2-carboxamide] |
| 45.6 | O=C(NCc1cn2cc(CNC3(C4CCCCC4)CC3)ccc2n1)c1cc(=O)n2ccccc2n1 [Compound 98, N-[(6-{[(1-cyclohexyl-cyclopropyl)amino]methyl}imidazo[1,2-a]pyridin-2-yl)methyl]-4-oxo-4H-pyrido [1,2-a]pyrimidine-2-carboxamide] |
| 18.1 | O=C(NCc1cn2cc(CNCC3CCC(F)(F)CC3)ccc2n1)c1cc(=O)n2ccccc2n1 [Compound 101, N-{[6-({[(4,4-difluorocyclohexyl)methyl]amino}methyl)imidazo [1,2-a]pyridin-2-yl]methyl}-4-oxo-4H-pyrido [1,2-a]pyrimidine-2-carboxamide] |
| 15 | CC1(CNCc2ccc3nc(CNC(=O)c4cc(=O)n5ccccc5n4)cn3c2)CCCCC1 [Compound 106, N-{[6-({[(1-methylcyclohexyl)methyl]amino}methyl)imidazo [1,2-a]pyridin-2-yl]methyl}-4-oxo-4H-pyrido [1,2-a]pyrimidine-2-carboxamide] |
| 143 | O=C(NCc1cn2cc(CNCCc3cccnc3)ccc2n1)c1cc(=O)n2ccccc2n1 [Compound 107, 4-oxo-N-{[6-({[2-(pyridin-3-yl)ethyl]amino}methyl)imidazo[1,2-a]pyridin-2-yl]methyl}-4H-pyrido[1,2-a]pyrimidine-2-carboxamide] |
| 241 | O=C(NCc1cn2cc(CNCC3COCCO3)ccc2n1)c1cc(=O)n2ccccc2n1 (stereo not drawn) [Compound 108, N-{[6-({[(1,4-dioxan-2-yl)methyl]amino}methyl)imidazo [1,2-a]pyridin-2-yl]methyl}-4-oxo-4H-pyrido[1,2-a] pyrimidine-2-carboxamide] |
